The subject of one test is BxPC-3 cells. Briefly: In vivo inhibition of pancreatic cancer (mouse xenograft model). Also noted: species or system female athymic nude mice. Here is the method: Implant female athymic nude mice (Harlan Laboratories) subcutaneously with 5×10^6 BxPC-3 cells containing matrigel on the right flank and monitor tumor growth with calipers. Initiate compound dosing when tumors reach ˜250 mm^3 and dose mice twice per day by oral gavage (8 animals per group) for 28 days. Formulate compounds in 10% Acacia containing 0.05% anti-foam or 20% Captisol in 25 mM NaPO4 buffer pH […] the compounds of Examples 5 and 9, respectively. Treat control animals with Acacia vehicle alone. Estimate tumor volumes using the formula l×w^2×(π/6), where l is the larger measured diameter and w is the smaller perpendicular diameter. Calculate percent delta T/C using the formula 100×[(T−T0)/(C−C0)] and percent regression using the formula 100×[(T−T0)/T0], where T and C are mean tumor volumes in the treated and control groups, respectively. T0 and C0 are the corresponding baseline mean tumor volumes. Convert percent delta T/C to percent delta tumor growth inhibition (TGI) using the equation, 100−percent delta T/C. For statistical analysis, transform tumor volume data to log10 scale to equalize variance across time and treatment groups. Analyze the log10 volume data with a two-way repeated measures analysis of variance (Spatial Power correlation model) by time and treatment using the MIXED procedures in the SAS software package (Version 9.3). Compare treated groups to the control group at each time point.

Test [1] has as its target T1, EIF2AK2 (PKR) catalytic domain (Homo sapiens, UniProt P19525).
T1 construct: Recombinant human EIF2AK2 (PKR) catalytic domain (amino acids 252-551); purchased Invitrogen, Carlsbad, CA
T1 sequence (P19525 252-551): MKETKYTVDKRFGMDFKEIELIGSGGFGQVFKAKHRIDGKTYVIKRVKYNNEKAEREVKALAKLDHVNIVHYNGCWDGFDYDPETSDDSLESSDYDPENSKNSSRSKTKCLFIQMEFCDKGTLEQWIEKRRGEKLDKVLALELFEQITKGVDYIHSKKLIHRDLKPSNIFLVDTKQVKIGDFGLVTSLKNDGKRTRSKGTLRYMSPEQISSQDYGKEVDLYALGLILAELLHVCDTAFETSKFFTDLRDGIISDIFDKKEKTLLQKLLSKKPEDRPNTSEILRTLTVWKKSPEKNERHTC
Nature of the test: TR-FRET kinase assay, PKR. As to conditions: 2.5 μM ATP, 45 min; read-out: Enzyme IC50 PKR. Type of test: biochemical. Here is the method: (§1) Recombinant human EIF2AK2 (PKR) catalytic domain (amino acids 252-551), EIF2AK3 (PERK) catalytic domain (amino acids 536-1116), GFP-eIF2α substrate, and Terbium-labelled phospho-eIF2a antibody is obtained (Invitrogen, Carlsbad, CA). Express and purify HIS-SUMO-GCN2 catalytic domain (amino acids 584-1019) from E. coli. Perform TR-FRET kinase assays in the absence or presence of inhibitors in a reaction buffer consisting of 50 mM HEPES, pH 7.5, 10 mM MgCl2, 1.0 mM EGTA, and 0.01% Brij-35, and 100-200 nM GFP-eIF2α substrate. […] Add test compound, initiate the reaction by addition of enzyme, and incubate at room temperature for 45 minutes. Stop the reaction by addition of EDTA to a final concentration of 10 mM, add Terbium-labelled phospho-eIF2α antibody at a final concentration of 2 nM, and incubate for 90 minutes. Monitor the resulting fluorescence in an EnVison® Multilabel reader (PerkinElmer, Waltham, MA). Determine TR-FRET ratios and the resulting IC50 values using a 4-parameter nonlinear logistic equation as shown: Y=(A+((B−A)/(1+((C/x)^D)))) where, Y=% specific inhibition, A=Bottom of the curve, B=Top of the curve, C=absolute IC50 (concentration causing 50% inhibition), and D=hill slope.
In general terms: Time-resolved FRET reads energy transfer from a long-lived donor to a nearby acceptor.

For test [2], the target named is T2, EIF2AK3 (PERK) catalytic domain (Homo sapiens, UniProt Q9NZJ5).
T2 construct: EIF2AK3 (PERK) catalytic domain (amino acids 536-1116); purchased Invitrogen, Carlsbad, CA
T2 sequence (Q9NZJ5 536-1116): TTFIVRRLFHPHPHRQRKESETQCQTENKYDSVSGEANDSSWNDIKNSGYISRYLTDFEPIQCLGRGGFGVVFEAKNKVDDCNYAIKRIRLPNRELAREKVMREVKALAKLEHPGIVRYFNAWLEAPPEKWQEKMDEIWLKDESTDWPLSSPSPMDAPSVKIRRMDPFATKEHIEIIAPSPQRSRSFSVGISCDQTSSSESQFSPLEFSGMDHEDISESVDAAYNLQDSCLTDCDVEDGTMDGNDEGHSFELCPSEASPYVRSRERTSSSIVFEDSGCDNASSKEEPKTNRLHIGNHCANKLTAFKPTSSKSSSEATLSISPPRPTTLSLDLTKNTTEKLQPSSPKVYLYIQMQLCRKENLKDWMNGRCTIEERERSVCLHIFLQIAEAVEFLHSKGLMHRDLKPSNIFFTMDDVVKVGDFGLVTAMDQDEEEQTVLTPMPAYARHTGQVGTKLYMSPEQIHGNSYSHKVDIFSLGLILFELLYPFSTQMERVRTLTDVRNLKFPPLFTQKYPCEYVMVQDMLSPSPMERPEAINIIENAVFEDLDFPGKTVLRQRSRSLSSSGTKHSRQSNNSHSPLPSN
Nature of the test: In vitro inhibition of PERK enzyme activity (isolated), TR-FRET kinase assay. The conditions noted are these: 1.5 μM ATP, 45 min. Type of test: biochemical. As for the experimental part:
as §1

Test [3] deals with T3, PERK in GripTite 293 cells expressing GFP-eIF2α (Homo sapiens, UniProt Q9NZJ5).
T3 construct: Add Tunicamycin (1 μM) to induce PERK activity; endogenous in cells; host or cells: GripTite 293 cells expressing GFP-eIF2α
T3 sequence (Q9NZJ5 30-1116): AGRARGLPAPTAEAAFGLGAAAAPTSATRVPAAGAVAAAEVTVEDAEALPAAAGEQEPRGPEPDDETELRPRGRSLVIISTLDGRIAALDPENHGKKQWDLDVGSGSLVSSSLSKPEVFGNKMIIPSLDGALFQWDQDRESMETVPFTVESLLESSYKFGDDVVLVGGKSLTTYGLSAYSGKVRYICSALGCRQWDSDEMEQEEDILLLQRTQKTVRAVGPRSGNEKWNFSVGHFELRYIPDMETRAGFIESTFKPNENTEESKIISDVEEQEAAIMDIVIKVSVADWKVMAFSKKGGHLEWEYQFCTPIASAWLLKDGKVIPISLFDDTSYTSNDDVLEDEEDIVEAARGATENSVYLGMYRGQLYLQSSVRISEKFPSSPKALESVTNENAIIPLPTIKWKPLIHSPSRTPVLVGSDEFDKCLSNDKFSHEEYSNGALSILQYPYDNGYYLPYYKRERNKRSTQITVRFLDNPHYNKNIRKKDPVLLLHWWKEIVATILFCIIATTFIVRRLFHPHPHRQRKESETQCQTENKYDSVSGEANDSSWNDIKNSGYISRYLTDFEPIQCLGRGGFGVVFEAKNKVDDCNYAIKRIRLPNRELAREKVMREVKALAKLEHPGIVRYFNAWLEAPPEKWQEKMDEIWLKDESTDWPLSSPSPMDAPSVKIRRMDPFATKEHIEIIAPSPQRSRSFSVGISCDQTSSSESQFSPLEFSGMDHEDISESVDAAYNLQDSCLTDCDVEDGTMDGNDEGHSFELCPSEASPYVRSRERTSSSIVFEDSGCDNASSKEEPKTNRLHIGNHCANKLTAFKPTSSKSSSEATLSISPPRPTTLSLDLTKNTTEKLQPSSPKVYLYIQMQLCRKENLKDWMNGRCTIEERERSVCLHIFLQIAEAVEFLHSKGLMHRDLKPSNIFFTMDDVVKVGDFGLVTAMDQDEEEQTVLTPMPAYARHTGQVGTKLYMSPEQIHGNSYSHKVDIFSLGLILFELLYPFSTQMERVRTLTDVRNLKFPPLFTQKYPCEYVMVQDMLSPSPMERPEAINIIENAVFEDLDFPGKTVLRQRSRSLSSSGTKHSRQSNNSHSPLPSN
Briefly: In vitro inhibition of PERK enzyme activity (whole cell), tunicamycin-induced phospho-eIF2α TR-FRET. Format: cell-based. As to conditions: 1 h pre-treatment, Tunicamycin 1 μM 2 h. Here is the method:
Seed GripTite™ 293 cells (Invitrogen, Carlsbad, CA) expressing GFP-eIF2α at 10,000 cells per well in 384-well plates and allow to attach overnight. Pre-treat cells with test compounds for 1 hour. Add Tunicamycin (1 μM) to induce PERK activity and incubate the plates at 37° C. for 2 hours. Remove the culture media and lyse the cells in buffer consisting of 20 mM Tris-HCl, pH 7.5, 150 mM NaCl, 5 mM EDTA, 1% NP-40, 5 mM NaF, Protease inhibitors (Sigma, St. Louis, MO), Phosphatase inhibitors (Sigma, St. Louis, MO), and 2 nM Terbium-labelled anti-phospho-eIF2 antibody (Invitrogen, Carlsbad, CA). Incubate the cell lysates for 2 hours in the dark at room temperature and monitor fluorescence in an EnVison® Multilabel reader (PerkinElmer, Waltham, MA). Determine TR-FRET ratios and the resulting IC50 values from the fitted inhibition curves using un-induced (100% inhibition) and induced (0% inhibition) wells as controls.

[4] abbreviates: 30 mg/kg PO BID group, day 21 post-implant (before start of treatment).
[5] abbreviates: 30 mg/kg PO BID group, day 24 post-implant (before start of treatment).
Where [6] appears, read: 30 mg/kg PO BID group, day 32 post-implant (before start of treatment).
[7] abbreviates: 30 mg/kg PO BID group, day 35 post-implant (before start of treatment).
[8] abbreviates: 30 mg/kg PO BID group, day 39 post-implant (before start of treatment).
The mark [9] stands for this setting: 30 mg/kg PO BID group, day 47 post-implant (before start of treatment).
[10] abbreviates: 30 mg/kg PO BID group, day 52 post-implant (day of randomization and start of treatment).
Setting [11] is: 30 mg/kg PO BID, day 60 post-implant.
The mark [12] stands for this setting: 30 mg/kg PO BID, day 67 post-implant.
The mark [13] stands for this setting: 30 mg/kg PO BID, day 72 post-implant.
[14] abbreviates: 30 mg/kg PO BID, day 74 post-implant.
Setting [15] is: 30 mg/kg PO BID, day 76 post-implant.
The mark [16] stands for this setting: 30 mg/kg PO BID, day 79 post-implant.

By T/C is commonly meant the result in the treated group divided by that in the control group, in per cent. Broadly, the IC50 is the concentration needed to halve the response being measured.

Consider `CNC(=O)c1nc(-c2ccc(NC(=O)[C@H](O)c3cc(F)cc(F)c3)cc2C)cnc1N` [Example 5, 3-amino-6-[4-[[(2R)-2-(3,5-difluorophenyl)-2-hydroxy-acetyl]amino]-2-methyl-phenyl]-N-methyl-pyrazine-2-carboxamide], for which the Mean tumor volume was determined as 123.9 mm^3 in the test on BxPC-3 cells (setting [4]); 132.8 mm^3 in the test with BxPC-3 cells (setting [5]); 143.4 mm^3 in the test with BxPC-3 cells (setting [6]); 174.6 mm^3 in the test on BxPC-3 cells (setting [7]); 183.8 mm^3 in the test with BxPC-3 cells (setting [8]); 213.7 mm^3 with BxPC-3 cells (setting [9]). Further, the Mean tumor volume in the test on BxPC-3 cells (setting [10]) stood at 252.0 mm^3; in the test on BxPC-3 cells (setting [11]), 311.8 mm^3; with BxPC-3 cells (setting [12]), 387.8 mm^3; in the test on BxPC-3 cells (setting [13]) it was 435.0 mm^3; in the test on BxPC-3 cells (setting [14]), 487.5 mm^3; in the test with BxPC-3 cells (setting [15]), 528.8 mm^3. In the test with BxPC-3 cells (setting [16]), this molecule had a Mean tumor volume of 593.2 mm^3. Also, the T/C with BxPC-3 cells (setting [11]) is 71.5%; in the test with BxPC-3 cells (setting [12]), 55.8%; in the test with BxPC-3 cells (setting [13]), 52.7%; in the test on BxPC-3 cells (setting [14]), 50.7%; with BxPC-3 cells (setting [15]), 54.5%; in the test on BxPC-3 cells (setting [16]), 47.7%. Besides, the “TGI (Tumor Growth Inhibition)” value worked out at 28.5% in the test with BxPC-3 cells (setting [11]); 44.2% with BxPC-3 cells (setting [12]); 47.3% in the test on BxPC-3 cells (setting [13]); 49.3% in the test on BxPC-3 cells (setting [14]); 45.5% with BxPC-3 cells (setting [15]); 52.3% with BxPC-3 cells (setting [16]). Also, the IC50 in test [1] was more than 20 µM.

As to `Cc1cc(NC(=O)[C@H](O)c2cc(F)cc(F)c2)ccc1-c1cnc(N)c(C(=O)NC(C)C)c1` [Example 1, 2-amino-5-[4-[[(2R)-2-(3,5-difluorophenyl)-2-hydroxy-acetyl]amino]-2-methyl-phenyl]-N-isopropyl-pyridine-3-carboxamide], the values for the IC50 in test [1] and in test [2] were more than 20 µM and 0.0022 ± 0.0012 µM, respectively.

Turning to `Cc1cc(NC(=O)[C@H](O)c2cccc(F)c2)ccc1-c1cn(C)c2ncnc(N)c12` [Example 9, (2R)—N-[4-(4-amino-7-methyl-pyrrolo[2,3-d]pyrimidin-5-yl)-3-methyl-phenyl]-2-(3-fluorophenyl)-2-hydroxy-acetamide], the Mean tumor volume with BxPC-3 cells (setting [4]) came out at 111.9 mm^3; in the test on BxPC-3 cells (setting [5]), 134.3 mm^3; in the test on BxPC-3 cells (setting [6]), 153.7 mm^3; in the test with BxPC-3 cells (setting [7]), 162.6 mm^3; with BxPC-3 cells (setting [8]), 167.1 mm^3; with BxPC-3 cells (setting [9]), 196.4 mm^3. Besides, the Mean tumor volume in the test with BxPC-3 cells (setting [10]) came out at 244.2 mm^3; in the test with BxPC-3 cells (setting [11]) it was 284.8 mm^3; in the test on BxPC-3 cells (setting [12]) it was 317.2 mm^3; with BxPC-3 cells (setting [13]), 380.5 mm^3; in the test on BxPC-3 cells (setting [14]), 418.3 mm^3; in the test with BxPC-3 cells (setting [15]), 480.4 mm^3. In the test with BxPC-3 cells (setting [16]), this molecule returned a Mean tumor volume of 541.6 mm^3. Moreover, the T/C was found to be 40.8% in the test on BxPC-3 cells (setting [11]); 27.4% in the test on BxPC-3 cells (setting [12]); 37.3% in the test with BxPC-3 cells (setting [13]); 36.0% in the test on BxPC-3 cells (setting [14]); 45.1% with BxPC-3 cells (setting [15]); 40.5% in the test with BxPC-3 cells (setting [16]). Also, the “TGI (Tumor Growth Inhibition)” value in the test with BxPC-3 cells (setting [11]) is 59.2%; in the test with BxPC-3 cells (setting [12]) it was 72.6%; with BxPC-3 cells (setting [13]), 62.7%; with BxPC-3 cells (setting [14]), 64.0%; with BxPC-3 cells (setting [15]), 54.9%; with BxPC-3 cells (setting [16]), 59.5%. For the same molecule, the IC50 in test [3] worked out at 0.028 ± 0.011 µM; in test [2], 0.0024 ± 0.001 µM.
